{"source": "patent US20110152303A1", "about": "“Chemical Compounds” (GlaxoSmithKline LLC, priority 2009, published 2011)", "system": "VSV-G pseudotyped, replication defective HIV vector (HIV IIIB) in CIP4 cells", "assay": "microbe, parasite or virus in culture", "format": "cell-based", "settings": "Human immunodeficiency virus 1, CIP4, 48 h, read-out: IC50 in the PHIV assay"}
{"smiles": "[2H]C([2H])([2H])c1cc(/C=C/C#N)cc(C([2H])([2H])[2H])c1Nc1ccnc(Nc2ccc(C#N)cc2)n1", "note": "[Compound D, (E)-4-((4-((4-(2-Cyanovinyl)-2,6-dimethylphenyl)amino)pyrimidin-2-yl)amino)benzonitrile-d6]", "values": [{"measurement": "IC50", "value": 0.3, "unit": "nM"}]}
